Patent publication US12382888B2, “Compositions and methods for modulating immunity in plants” (Boyce Thompson Institute for Plant Research, Inc., priority 2013, dated 2025)
“Also recorded” adds a separate entry of the source.

Assays:
[1] = tested on: PDF1.2; assay: PDF1.2 expression in Arabidopsis leaves (semi-quantitative PCR / qRT-PCR); conditions: for PDF1.2 expression in Arabidopsis: leaf pretreatment by syringe infiltration, 0.01, 0.3, and 10 μM; for PDF1.2 expression, ascaroside alone: leaf syringe infiltration (0.01 or 0.3 μM), semi-quantitative PCR
[2] = tested on: PR-1; assay: PR-1 expression in Arabidopsis leaves (semi-quantitative PCR / qRT-PCR); conditions: for PR-1 expression, ascaroside alone: leaf syringe infiltration (0.01 or 0.3 μM), semi-quantitative PCR; for PR-1 expression in Arabidopsis: leaf pretreatment by syringe infiltration, 0.01, 0.3, and 10 μM
[3] = tested on: Pseudomonas syringae pv. tomato DC3000 (Pst); assay: Resistance of Arabidopsis to Pseudomonas syringae pv. tomato DC3000 (bacterial growth); assay type: in vivo; conditions: for resistance to virulent Pst DC3000: leaf treatment at the concentration tested; for resistance to virulent Pst DC3000 (bacterial growth): leaf syringe infiltration 0.3 μM 24 hours prior to inoculation, 3 dpi
[4] = tested on: C. elegans; conditions: cited from earlier work; for sex pheromone activity: mixture of three ascarosides
[5] = tested on: PR-1; assay: PR-1 protein/transcript induction in tobacco leaves (immunoblot, RT-PCR); conditions: low concentrations of ascaroside
Method: Four-weeks old tobacco plants were syringe-infiltrated with buffer, SA, or a mixture of SA (50 μM or 500 μM) and decreasing concentration of ascr #18 (10, 0.3, and 0.01 μM). PR-1 was assayed 48 hours after treatment by immunoblot using anti-PR-1 antibody.
PR-1 expression was analyzed 48 hp SA treatment.
To determine whether ascr #18 affects levels of the prototypic SA-responsive PR-1 gene/protein, tobacco plants were treated with varying concentrations of ascr #18 in the presence or absence of SA (FIG. 2).

[6] = tested on: ovalbumin-specific T-helper cell responses; conditions: mice; cited from earlier work
[7] = tested on: Botrytis cinerea; assay: Resistance of tomato to Botrytis cinerea B05.01 (detached leaflet assay); assay type: in vivo; conditions: tomato cv. M82; root immersion 0.01 μM 48 hours before
[8] = tested on: Pseudomonas syringae pv. tabaci; assay: Resistance of tobacco to Pseudomonas syringae pv. tabaci (bacterial growth); conditions: leaves treated with 250 μM SA alone
[9] = tested on: asthma in a mouse model system; conditions: cited from earlier work
[10] = tested on: M. incognita; assay: Arabidopsis root knot nematode infection assay; assay type: in vivo, Meloidogyne incognita; conditions: higher concentrations than 10 nM
[11] = tested on: Heterodera schachtii; assay: Arabidopsis cyst nematode infection assay; assay type: in vivo; conditions: higher concentrations than 10 nM
[12] = ascaroside at low concentrations in combination with SA (50 μM)
[13] = higher concentration of ascaroside with SA (50 μM)

CC1O[C@@H](OCCCCC(=O)O)C(O)C[C@H]1O (stereo partly shown) [oscr #9]
PDF1.2 expression in Arabidopsis [1]: −
SA-induced PR-1 expression [2, 12]: enhances PR-1 expression induced by SA
resistance to virulent Pst DC3000 [3]: did not significantly enhance resistance

CC(=O)CC[C@@H](C)O[C@@H]1OC(C)[C@H](O)CC1O (stereo partly shown) [ascr #2, reference compound]
sex pheromone activity [4]: active at low nanomolar concentrations

CC1O[C@@H](O[C@H](C)CCCCCCC(=O)O)C(O)C[C@H]1O (stereo partly shown) [ascr #10]
PDF1.2 expression, ascaroside alone [1]: induces PDF1.2 expression; also recorded: altered
PR-1 expression in tobacco cv. W38 [5]: did not significantly increase PR-1 expression
SA-induced PR-1 expression [2, 12]: enhances PR-1 expression induced by SA
PR-1 expression, ascaroside alone [2]: induces PR-1 expression; also recorded: altered
response of hermaphrodites [4]: strongly attracts hermaphrodites
resistance to virulent Pst DC3000 [3]: did not significantly enhance resistance

C[C@H](CCC(=O)O)O[C@@H]1O[C@@H](C)[C@H](O)C[C@H]1O [ascr #9]
PDF1.2 expression in Arabidopsis [1]: +
PDF1.2 expression, ascaroside alone [1]: induces PDF1.2 expression; also recorded: induced expression; also recorded: altered
PR-1 expression in tobacco cv. W38 [5]: did not significantly increase PR-1 expression
SA-induced PR-1 expression [2, 12]: enhances PR-1 expression induced by SA
SA-induced PR-1 expression [2, 13]: reduces the SA-induced PR-1 expression
PR-1 expression in Arabidopsis [2]: +
PR-1 expression, ascaroside alone [2]: induces PR-1 expression; also recorded: induced expression; also recorded: altered
resistance to virulent Pst DC3000 [3]: did not significantly enhance resistance

CC1O[C@@H](O[C@H](C)CC/C=C/C(=O)Nc2ccc(C(=O)O)cc2)C(O)C[C@H]1O (stereo partly shown) [ascr #8]
sex pheromone activity [4]: active at low nanomolar concentrations

CC1O[C@@H](O[C@H](C)CCCC/C=C/C(=O)O)C(O)C[C@H]1O (stereo partly shown) [ascr #3]
PDF1.2 expression in Arabidopsis [1]: +
PDF1.2 expression, ascaroside alone [1]: induces PDF1.2 expression; also recorded: induced expression; also recorded: altered
PR-1 expression in tobacco cv. W38 [5]: did not significantly increase PR-1 expression
SA-induced PR-1 expression [2, 12]: enhances PR-1 expression induced by SA
SA-induced PR-1 expression [2, 13]: reduces the SA-induced PR-1 expression
PR-1 expression in Arabidopsis [2]: +
PR-1 expression, ascaroside alone [2]: induces PR-1 expression; also recorded: induced expression; also recorded: altered
response of hermaphrodites [4]: repels hermaphrodites
sex pheromone activity [4]: active at low nanomolar concentrations
ovalbumin-specific T-helper cell responses [6]: no significant effect
resistance to virulent Pst DC3000 (bacterial growth) [3]: enhanced resistance

CC1O[C@@H](O[C@H](C)CCCCCCCCC(=O)NCCO)C(O)C[C@H]1O (stereo partly shown) [easc #18]
resistance to B. cinerea (lesion size 3 dpi) [7]: enhanced resistance
resistance to virulent Pst DC3000 (bacterial growth) [3]: enhances resistance

O=C(O)c1ccccc1O [SA, salicylic acid, reference compound]
virulent P.t. growth [8]: reduced levels of virulent P.t. growth
protection against Pst ([3]; 50 μM SA alone, leaf infiltration): low level of protection

CC1O[C@@H](O[C@H](C)CC/C=C/C(=O)O)C(O)C[C@H]1O (stereo partly shown) [ascr #7]
development of asthma [9]: strongly suppressed the development of asthma
ovalbumin-specific T-helper cell responses [6]: strongly suppresses

CC1O[C@@H](O[C@H](C)CCCCC(=O)O)C(O)C[C@H]1O (stereo partly shown) [ascr #1]
development of asthma [9]: strongly suppressed the development of asthma

CC1O[C@@H](O[C@H](C)CCCC/C=C/C(=O)O)C(O)C[C@H]1OC(=O)c1ccc(O)cc1 (stereo partly shown) [hbas #3, reference compound]
promotion of aggregation behaviors [4]: active at femtomolar concentrations

(10R)-(3′R,5′R-dihydroxy-6′S-methyl-(2H)-tetrahydropyran-2-yloxy)-undecanoic Acid [ascr #18]
infection with M. incognita [10]: less effective
infection with H. schachtii [11]: less effective
